Legend:
[1] = tested on: Jack soybean plants (nontransgenic, AXN2, AXMI031); test: Plant height of soybean plants in the SCN pot test; type: in vivo
Protocol: (§1) Two tests were planted with Jack (an SCN resistant soybean variety with PI 88788 resistance) and two genetically modified Jack varieties (AXN2 and AXMI031) known to produce a nematicidal protein. The seed were treated with a color/coating base or the same base plus one of two different rates of fluopyram (experiment 1 used 0.075 mg fluopyram/seed and experiment 2 used 0.15 mg fluopyram/seed). The SCN used to inoculate both tests were collected from an inbred colony (OP50) with the ability to overcome PI 88788 resistance.
(§2) Tests were conducted as non-randomized blocks with a minimum of 10 replicates. Seed were planted in individual 4″ clay pots with coarse sand and inoculated with approximately 20,000 OP50 juveniles in ten equal inoculations beginning at planting and again approximately every third day. Plants were maintained in a germination chamber. Blocks were rotated approximately every third day to minimize potential influence of environmental variance. Two months after planting, plants were harvested and cysts were collected and counted to evaluate the efficacy of the nematicide and traits, both individually and in combination with each other.

[2] = tested on: SCN (inbred colony OP50, able to overcome PI 88788 resistance); test: SCN cyst count on soybean plants grown from treated seed, pot test in germination chamber; type: in vivo; conditions: for reduction of SCN populations: nontransgenic Jack plants, cysts counted two months after planting; for percent reduction of average number of cysts compared to Jack: base (color/coating) treatment only, trait effect
Protocol: as §1, §2

Molecule | effect on average plant height ([1]; both genetically modified varieties (Axn2, Axmi031), both experiments (0.075 and 0.15 mg/seed)) | effect on average plant height ([1]; nontransgenic control Jack plants, both experiments) | reduction of SCN populations ([2]; first experiment, 0.075 mg fluopyram/seed) | approximate reduction (SCN) provided by fluopyram ([2]; high rate (0.15 mg/seed), transgenic Axmi031 plants) | approximate reduction (SCN) provided by fluopyram ([2]; high rate (0.15 mg/seed), transgenic Axn2 plants) | approximate reduction (SCN) provided by fluopyram ([2]; low rate (0.075 mg/seed), transgenic Axmi031 plants) | approximate reduction (SCN) provided by fluopyram ([2]; low rate (0.075 mg/seed), transgenic Axn2 plants) | reduction of SCN populations ([2]; second experiment, 0.15 mg fluopyram/seed) | percent reduction of average number of cysts compared to Jack ([2]; first experiment) | percent reduction of average number of cysts compared to Jack ([2]; second experiment)
O=C(NCCc1ncc(C(F)(F)F)cc1Cl)c1ccccc1C(F)(F)F [fluopyram, N-{2-[3-chloro-5-(trifluoromethyl)-2-pridinyl]ethyl}-2-(trifluoromethyl)benzamide] | increased average plant height | not having an effect | 26% | ~40% | ~40% | ~20% | ~20% | 43% |  | 
AXN2: genetically modified Jack soybean variety known to produce a nematicidal protein (gene axn2, Table 1) (protein, AXMI-205(trun20)) MASAANAGQLGNLPGVTSMGMGYDVNGLYASPESLLGQPLFDFGGELDSIEIEGRSYTFPRSMHVHTYFHSDFKQDVSKEIEEYREKMSQHVGVSGRYKLFSASLSVDFTTTDQQLTEITYSSTREAHVLWYISLPGAATLRSMLRRDFRDDLNNPNMPAMELFKRYGPYYISEAAVGGRLDYSAASKTLKMDSSQSLSTTAEMSYKALVGEIKIEHGSEMEKQVNSFRSNSTIRLTATGGKPGMTDRILHGPDSQQAFSQWAESLLDYATLMDFSTESLQPIWALADKPERRVELEDAFPEFMKQSQQSIPKVDKVLLMDARPPMVKAGEDSGSGASEDLAVFNPSTSNGYKMVGQFGQRNHASVADGHAPIFKDLFDLGVLKAPVGWQRVWDDAGSGKSKDYACWRAIPPQGYRALGDVMMLATSGYNPPNLPDYVCVHQSLCADVQTLQNRVWWDKGTGARKDVSLWQPGAAGAVASSCFAGVPNYNNPPNSGDIERLRGSIACVKTSAIASM |  |  |  |  |  |  |  |  | 20% | 43%
AXMI031: genetically modified Jack soybean variety known to produce a nematicidal protein (gene axmi031, Table 1) (protein, listed as Bacillus thuringiensis) MNMNNTKLNARALPSFIDYFNGIYGFATGIKDIMNMIFKTDTGGDLTLDEILKNQQLLNEISGKLDGVNGSLNDLIAQGNLNTELSKEILKIANEQNQVLNDVNNKLDAINTMLNIYLPKITSMLSDVMKQNYALSLQIEYLSRQLQEISDKLDVINLNVLINSTLTEITPSYQRIKYVNEKFDKLTFATESTLRAKQGIFNEDSFDNNTLENLTDLAELAKSITKNDVDSFEFYLHTFHDVLIGNNLFGRSALKTASELITKDEIKTSGSEIGKVYSFLIVLTSLQAKAFLTLTTCRKLLGLSDIDYTSIMNEHLNNEKNEFRDNILPALSNKFSNPSYAKTIGSDNYAKVILESEPGYALVGFEIINDPIPVLKAYKAKLKQNYQVDNQSLSEIVYLDIDKLFCPENSEQKYYTKNLTFPDGYVITKITFEKKLNNLIYEATANFYDPSTGDIDLNKKQVESTFPQTDYITMDIGDDDGIYMPLGVISETFLTPINSFGLEVDAKSKTLTLKCKSYLREYLLESDLKNKETGLIAPPNVFISNVVKNWDIEEDSLEPWVANNKNAYVDNTGGIERSKALFTQGDGEFSQFIGDKLKPNTDYIIQYTVKGKPAIYLKNKSTGYITYEDTNGNSEEFQTIAVKFTSETDLSQTHLVFKSQNGYEAWGDNFIILEAKLFETPESPELIKFNDWERFGTTYITGNELRIDHSRGGYFRQSLNIDSYSTYDLSFSFSGLWAKVIVKNSRGVVLFEKVKNNGSSYEDISESFTTASNKDGFFIELTAERTSSTFHSFRDISIKEKIE |  |  |  |  |  |  |  |  | 92% | 88%

— US8865622B2, “Use of active ingredients for controlling nematodes in nematode-resistant crops” (priority 2010, dated 2014)
